These results are taken from publication PMC7468576 (Acta Pharmacologica Sinica, 2019).

Data set [1] addresses rhTDO2 (purified TDO2 enzyme) (Homo sapiens, UniProt P48775). The data set is described as follows: Enzymatic assay of TDO2. The format is biochemical.
Data set [2] concerns the target recombinant human IDO1 (rhIDO1) (Homo sapiens, UniProt P14902). The data set is described as follows: Enzymatic assay of IDO1. The format is biochemical.
For data set [3], the target named is human TDO2 in HEK 293 cells (Homo sapiens, UniProt P48775). The data set is described as follows: Cell-based assay of TDO2 activity.
In another data set the test system is HEK 293 cells. The data set can be described thus: Cell viability assay. The format is cell-based, human. The conditions noted are these: conditions used for the kynurenine assay.
Data set [4] addresses human IDO1 in HEK 293 cells (Homo sapiens, UniProt P14902). The data set is described as follows: Cell-based assay of IDO1 activity. The conditions noted are these: for inhibition of the cellular activity of IDO1: HEK 293 cells overexpressing human IDO1, kynurenine released, Fig. 2c.
In data set [5] the target is T1, IDO1 (Homo sapiens, UniProt P14902). The data set can be described thus: IDO1 absorbance spectra. The conditions noted are these: compound 20 μM, rhIDO1 3 μM; for absorbance of ferric-IDO1 at 404 nm: compared with control; for absorbance of ferrous-IDO1 at 428 nm: sodium dithionite. In kind it is binding.
Data set [6] deals with T1, IDO1. The data set is described as follows: biochemical. The conditions noted are these: for mode of inhibition: L-tryptophan 7.5 μM to 30 μM, Fig. 4.

T1 sequence (P14902 whole entry): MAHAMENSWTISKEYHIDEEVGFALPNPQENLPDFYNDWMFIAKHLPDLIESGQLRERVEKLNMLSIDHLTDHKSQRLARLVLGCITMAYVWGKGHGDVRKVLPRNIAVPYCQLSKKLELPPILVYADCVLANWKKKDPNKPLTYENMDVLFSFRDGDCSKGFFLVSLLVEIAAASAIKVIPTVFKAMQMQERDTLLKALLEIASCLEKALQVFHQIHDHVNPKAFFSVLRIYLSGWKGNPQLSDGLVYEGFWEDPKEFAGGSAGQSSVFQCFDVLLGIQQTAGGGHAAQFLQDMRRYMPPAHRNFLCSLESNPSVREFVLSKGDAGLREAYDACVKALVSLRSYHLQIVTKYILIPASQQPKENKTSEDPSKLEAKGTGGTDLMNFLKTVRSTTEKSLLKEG
human IDO1 in HEK 293 cells, sequence (P14902 whole entry): as above
recombinant human IDO1 (rhIDO1), sequence (P14902 whole entry): as above

What is called IC50 is the concentration that inhibits the measured activity by half. A word on the Ki: it is the dissociation constant of the complex between target and ligand, obtained from inhibition or displacement. A higher Ki goes with weaker binding. In turn, `Cc1cccc2c3c(ccc12)C1=C(C(=O)C3=O)[C@@H](C)CO1` [Compound 8, dihydrotanshinone I] had a half-maximal inhibitory concentration (IC50) in data set [1] of 5100 nM. Moreover, in data set [2], the IC50 came to 2800 nM. The same molecule had a 50% inhibitory concentration (IC50) in data set [3] of 13300 nM. Also, the “effect on cell viability (CCK8)” value with HEK 293 cells was “no effect on cell viability”. Further, in data set [4], half-maximal inhibition (IC50) required 25700 nM and the “inhibition of the cellular activity of IDO1” value turned out to be 83.6%. Further, at IDO1 [5], the “absorbance of ferric-IDO1 at 404 nm” value was “decreased” and the “absorbance of ferrous-IDO1 at 428 nm” value was “remained unchanged”. Besides, at IDO1 [6], the affinity, expressed as Ki, was 2800 nM and the mode of inhibition entry is recorded as “uncompetitive inhibition”.

On to `C[C@H]1COC2=C1C(=O)C(=O)c1c2ccc2c1CCCC2(C)C` [Compound B06F5, cryptotanshinone], for which, in data set [2] (read-out: IDO1 inhibitory activity of tanshinone derivatives), the inhibition at 20 µM was above 40%.

As for `CC(C)=CC[C@@H](O)C1=CC(=O)c2c(O)ccc(O)c2C1=O` [Compound 7, shikonin], half-maximal inhibition in data set [1] (IC50) required 5050 nM. Besides, the IC50 in data set [2] stood at 980 nM. This molecule gave an IC50 in data set [3] of 1400 nM. Besides, the “effect on cell viability (CCK8)” value with HEK 293 cells was “slightly reduced cell viability”. In data set [4], the concentration for half-maximal inhibition (IC50) came to 2200 nM and the “inhibition of the cellular activity of IDO1” value turned out to be 101.8%. For the same molecule, at IDO1 [5], the “absorbance of ferric-IDO1 at 404 nm” value is reported as “decreased” and the “absorbance of ferrous-IDO1 at 428 nm” value is on record as “remained unchanged”. At IDO1 [6], the Ki turned out to be 1400 nM and the mode of inhibition result is on record as “uncompetitive inhibition”.
